Measurements reported in patent US10508120B2, “TYK2 inhibitors and uses thereof” (Nimbus Lakshmi, Inc., priority 2017, dated 2019).
Like-named read-outs stand apart in the source and are kept apart here.

Experiments:
JAK2 kinase domain (JH1) = JAK2 kinase domain (JH1) (Homo sapiens (Human), UniProt O60674); assay: JAK2 Radioactive Kinase Assay; format: biochemical; conditions: for inhibition at 10 µM: read-out: JAK2 JH1% Inhibition @ 10 μM
Description: (§1) The Tyk2 and JAK2 radioactive kinase assay measures the percent inhibition at the Tyk2 kinase domain (DH1) and the percent inhibition at the JAK2 kinase domain (JH1). Results of the assay are expressed as percent inhibition at 10 μM.

Tyk2 kinase domain (DH1) = Tyk2 kinase domain (DH1) (Homo sapiens (Human), UniProt P29597); assay: Tyk2 Radioactive Kinase Assay; format: biochemical; conditions: for inhibition at 10 µM: read-out: Tyk2 JH1% Inhibition @ 10 μM
Sequence of Tyk2 kinase domain (DH1) (P29597 897-1176): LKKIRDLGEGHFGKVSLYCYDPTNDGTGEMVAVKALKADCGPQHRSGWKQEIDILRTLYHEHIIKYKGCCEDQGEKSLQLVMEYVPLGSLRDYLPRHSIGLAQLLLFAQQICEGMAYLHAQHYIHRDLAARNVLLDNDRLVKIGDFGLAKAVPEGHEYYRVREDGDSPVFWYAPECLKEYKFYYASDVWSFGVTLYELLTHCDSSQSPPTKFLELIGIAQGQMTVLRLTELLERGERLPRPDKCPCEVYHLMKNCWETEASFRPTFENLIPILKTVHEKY
Description: as §1

[1] = molecular target: human TYK2 (JH2domain-pseudokinase) (Homo sapiens (Human), UniProt P29597); assay: TYK2 JH2 Domain Binding Assay (KINOMEscan)
Sequence of human TYK2 (JH2domain-pseudokinase) (P29597 556-888): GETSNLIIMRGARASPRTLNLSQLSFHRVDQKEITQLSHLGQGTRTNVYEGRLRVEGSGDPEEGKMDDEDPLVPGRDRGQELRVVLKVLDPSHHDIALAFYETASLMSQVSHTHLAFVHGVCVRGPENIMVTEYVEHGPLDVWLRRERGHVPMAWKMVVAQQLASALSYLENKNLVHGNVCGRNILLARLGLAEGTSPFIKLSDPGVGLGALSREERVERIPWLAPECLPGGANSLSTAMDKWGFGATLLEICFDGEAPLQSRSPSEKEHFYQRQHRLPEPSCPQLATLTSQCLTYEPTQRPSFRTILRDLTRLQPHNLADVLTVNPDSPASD
Summary of the method: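 Competition binding of a DNA-tagged fusion of human TYK2 JH2 pseudokinase (G556–D888) with NFkB DNA-binding domain, from HEK293 extracts (<0.1 nM final), against immobilised ligand beads; 1 h shaking at room temperature, 0.9% DMSO. Bound kinase quantified by qPCR.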

Sequence of JAK2 kinase domain (JH1) (O60674 849-1124): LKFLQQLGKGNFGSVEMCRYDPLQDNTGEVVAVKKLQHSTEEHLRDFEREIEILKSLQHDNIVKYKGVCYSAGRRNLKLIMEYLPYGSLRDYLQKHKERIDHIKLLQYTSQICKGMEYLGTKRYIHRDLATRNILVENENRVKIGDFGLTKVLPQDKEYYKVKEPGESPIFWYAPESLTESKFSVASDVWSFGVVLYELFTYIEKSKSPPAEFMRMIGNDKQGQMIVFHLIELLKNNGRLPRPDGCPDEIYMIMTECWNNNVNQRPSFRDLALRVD

Row | Structure (SMILES) | inhibition at 10 µM (JAK2 kinase domain (JH1); 10 μM compound, 10 μM ATP) [%] | inhibition at 10 µM (Tyk2 kinase domain (DH1); 10 μM compound, 10 μM ATP) [%] | Kd [1] [nM] | inhibition at 10 µM (JAK2 kinase domain (JH1); compound at 10 μM, ATP 10 μM) [%] | inhibition at 10 µM (Tyk2 kinase domain (DH1); compound at 10 μM, ATP 10 μM) [%] | JAK2 JH1% Inhibition @ 10 μM (JAK2 kinase domain (JH1); 10 μM compound, 10 μM ATP) | Tyk2 JH1% Inhibition @ 10 μM (Tyk2 kinase domain (DH1); 10 μM compound, 10 μM ATP)
1 | Cc1cc(Nc2cc(N)n3ncc(C(N)=O)c3n2)cc(N2CCCC(O)C2)n1 (stereo in doubt) [I-62, (S)-7-amino-5-((2-(3-hydroxypiperidin-1-yl)-6-methylpyridin-4-yl)amino)pyrazolo[1,5-a]pyrimidine-3-carboxamide] |  |  | > 10 | < 50 | < 50 |  | 
2 | Cc1c(Nc2cccnc2OC(C)C)nc2c(C(=O)N[C@@H]3C[C@@H]3F)cnn2c1N (stereo in doubt) [I-206, 7-amino-N-((1R,2S)-2-fluorocyclopropyl)-5-((2-isopropoxypyridin-3-yl)amino)-6-methylpyrazolo[1,5-a]pyrimidine-3-carboxamide] |  |  | 1 to 10 | < 50 | < 50 |  | 
3 | CNc1cc(-c2cn(C(C)C)c3ncc(Cl)cc23)nc2c(C(=O)N[C@@H]3C[C@@H]3F)cnn12 (stereo in doubt) [I-254, 5-(5-chloro-1-isopropyl-1H-pyrrolo[2,3-b]pyridin-3-yl)-N-((1R,2S)-2-fluorocyclopropyl)-7-(methylamino)pyrazolo[1,5-a]pyrimidine-3-carboxamide] |  |  | 0.2 to 1 | < 50 | < 50 |  | 
4 | COc1ncccc1Nc1cc(NCCN2CCOCC2)n2ncc(C(=O)N[C@@H]3C[C@@H]3F)c2n1 (stereo in doubt) [I-388, N-((1R,2S)-2-fluorocyclopropyl)-5-((2-methoxypyridin-3-yl)amino)-7-((2-morpholinoethyl)amino)pyrazolo[1,5-a]pyrimidine-3-carboxamide] |  |  | 0.2 to 1 | < 50 | < 50 |  | 
5 | [2H]C([2H])([2H])Oc1ncccc1Nc1cc(NC)n2ncc(C(=O)N[C@@H]3CC[C@@H]3O)c2n1 (stereo in doubt) [I-400, N-((1R,2S)-2-hydroxycyclobutyl)-5-((2-(methoxy-d3)pyridin-3-yl)amino)-7-(methylamino) pyrazolo[1,5-a]pyrimidine-3-carboxamide] |  |  | 0.2 to 1 | < 50 | < 50 |  | 
6 | CNc1cc(Nc2cccnc2OC2CC2)nc2c(C(=O)N[C@@H]3CCC[C@H]3O)cnn12 (stereo in doubt) [I-424, 5-((2-cyclopropoxypyridin-3-yl)amino)-N-(2-hydroxycyclopentyl)-7-(methylamino)pyrazolo[1,5-a]pyrimidine-3-carboxamide] |  |  | < 0.2 | < 50 | < 50 |  | 
7 | CNc1cc(Nc2cccn([C@@H]3CCC[C@H](OC)C3)c2=O)nc2c(C(=O)N[C@@H]3CC[C@H]3O)cnn12 [I-994] |  |  |  |  |  | A (percent inhibition at 10 μM lower than 50) | A (percent inhibition at 10 μM lower than 50)
8 | CNc1cc(Nc2cccn([C@H]3CCC[C@H](OC)C3)c2=O)nc2c(C(=O)NCC3(CO)CC3)cnn12 [I-1086] |  |  |  |  |  | A (percent inhibition at 10 μM lower than 50) | A (percent inhibition at 10 μM lower than 50)
9 | CNc1cc(Nc2cccn([C@H]3C[C@@H]3F)c2=O)nc2c(C(=O)NCC3(CO)CC3)cnn12 [I-1121, 5-((1-((1S,2S)-2-fluorocyclopropyl)-2-oxo-1,2-dihydropyridin-3-yl)amino)-N-((1-(hydroxymethyl)cyclopropyl)methyl)-7-(methylamino)pyrazolo[1,5-a]pyrimidine-3-carboxamide] |  |  |  |  |  | A (percent inhibition at 10 μM lower than 50) | A (percent inhibition at 10 μM lower than 50)

Second part, led by results:

Row | inhibition at 10 µM (JAK2 kinase domain (JH1); 10 μM compound, 10 μM ATP) [%] | inhibition at 10 µM (Tyk2 kinase domain (DH1); 10 μM compound, 10 μM ATP) [%] | Kd [1] [nM] | inhibition at 10 µM (JAK2 kinase domain (JH1); compound at 10 μM, ATP 10 μM) [%] | inhibition at 10 µM (Tyk2 kinase domain (DH1); compound at 10 μM, ATP 10 μM) [%] | Structure (SMILES) | JAK2 JH1% Inhibition @ 10 μM (JAK2 kinase domain (JH1); 10 μM compound, 10 μM ATP) | Tyk2 JH1% Inhibition @ 10 μM (Tyk2 kinase domain (DH1); 10 μM compound, 10 μM ATP)
10 | < 50 | < 50 | < 0.2 |  |  | CNc1cc(Nc2cccn([C@H]3C[C@@H]3F)c2=O)nc2c(C(=O)N[C@H]3CC[C@H]3O)cnn12 (mixture of isomers) [I-1090, 5-((1-((1S,2S)-2-fluorocyclopropyl)-2-oxo-1,2-dihydropyridin-3-yl)amino)-N-(2-hydroxycyclobutyl)-7-(methylamino)pyrazolo[1,5-a]pyrimidine-3-carboxamide] |  | 
11 | < 50 | < 50 | 0.2 to 1 |  |  | CNc1cc(Nc2cccn([C@H]3CCC[C@@H](OC)C3)c2=O)nc2c(C(=O)NCC3(CO)CC3)cnn12 (racemic) [I-862] |  | 
12 |  |  | 0.2 to 1 | < 50 | < 50 | CNc1cc(-c2nn(C3CCOCC3)c3ncccc23)nc2c(C(=O)N[C@@H]3C[C@@H]3F)cnn12 (stereo in doubt) [I-450, N-((1R,2S)-2-fluorocyclopropyl)-7-(methylamino)-5-(1-(tetrahydro-2H-pyran-4-yl)-1H-pyrazolo[3,4-b]pyridin-3-yl)pyrazolo[1,5-a]pyrimidine-3-carboxamide] |  | 
13 |  |  | < 0.2 | < 50 | < 50 | CNc1cc(Nc2cccnc2OC)nc2c(C(=O)N[C@@H]3CCC[C@@H](O)C3)cnn12 (stereo in doubt) [I-459, N-(3-hydroxycyclohexyl)-5-((2-methoxypyridin-3-yl)amino)-7-(methylamino)pyrazolo[1,5-a]pyrimidine-3-carboxamide] |  | 
14 |  |  | < 0.2 | < 50 | < 50 | CNc1cc(Nc2cccnc2OC2CC2)nc2c(C(=O)N[C@H]3CC[C@H](O)C3)cnn12 (stereo in doubt) [I-461, 5-((2-cyclopropoxypyridin-3-yl)amino)-N-(3-hydroxycyclopentyl)-7-(methylamino)pyrazolo[1,5-a]pyrimidine-3-carboxamide] |  | 
15 |  |  | 0.2 to 1 | 50 to 70 | < 50 | CNc1cc(Nc2cccc(C3CCCCO3)n2)nc2c(C(=O)NC3CC3)cnn12 (stereo in doubt) [I-463, (R)—N-cyclopropyl-7-(methylamino)-5-((6-(tetrahydro-2H-pyran-2-yl)pyridin-2-yl)amino) pyrazolo[1,5-a]pyrimidine-3-carboxamide] |  | 
16 |  |  | 0.2 to 1 | < 50 | < 50 | CNc1cc(Nc2cccc(C3CCCCO3)n2)nc2c(C(=O)NC3CC3)cnn12 (stereo in doubt) [I-464, (S)—N-cyclopropyl-7-(methylamino)-5-((6-(tetrahydro-2H-pyran-2-yl)pyridin-2-yl)amino) pyrazolo[1,5-a]pyrimidine-3-carboxamide] |  | 
17 |  |  | 0.2 to 1 | < 50 | < 50 | CNc1cc(Nc2cccn(CCOC3CC3)c2=O)nc2c(C(=O)NC3CC[C@H]3O)cnn12 (stereo in doubt) [I-515, 5-((1-(2-cyclopropoxyethyl)-2-oxo-1,2-dihydropyridin-3-yl)amino)-N-((1R,2R)-2-hydroxycyclobutyl)-7-(methylamino)pyrazolo[1,5-a]pyrimidine-3-carboxamide] |  | 
18 |  |  | < 0.2 | < 50 | < 50 | CNc1cc(-c2cn(C(C)C)c3ncccc23)nc2c(C(=O)N[C@@H]3C[C@H]3O)cnn12 (stereo in doubt) [I-653, N-((1R,2R)-2-hydroxycyclopropyl)-5-(1-isopropyl-1H-pyrrolo[2,3-b]pyridin-3-yl)-7-(methylamino)pyrazolo[1,5-a]pyrimidine-3-carboxamide] |  | 
19 | < 50 | < 50 |  |  |  | CNc1cc(Nc2cccn([C@H]3CC[C@@H]3OC)c2=O)nc2c(C(=O)N[C@@H]3C[C@@H]3F)cnn12 [I-1021] |  | 
